Test results: ChEMBL document CHEMBL5034019, “Discovery of the Next-Generation Pan-TRK Kinase Inhibitors for the Treatment of Cancer” (J Med Chem, 2021)
The source made the active and inactive calls. No cut-off for these calls is given here.

How the values were obtained:
[1] = Toxicity in mouse xenografted with mouse BaF3 cells transfected with ETV6-NTRK3-G623R mutant assessed as weight loss at 100 mg/kg, po administered once daily for 21 days and measured twice weekly; conditions: in vivo, 504 h
[2] = Toxicity in […] xenografted with mouse BaF3 cells transfected with ETV6-NTRK3 assessed as death at 100 mg/kg, po administered once daily for 21 days and measured twice weekly; type: organism-based; conditions: in vivo, 504 h, time 21 day
[3] = Toxicity in mouse xenografted with mouse BaF3 cells transfected with LMNA-NTRK1-G595R mutant assessed as unkempt appearance at 100 mg/kg, po administered once daily for 21 days and measured twice weekly; conditions: in vivo, 504 h
[4] = Toxicity in mouse xenografted with mouse BaF3 cells transfected with ETV6-NTRK3-G623R mutant assessed as unkempt appearance at 100 mg/kg, po administered once daily for 21 days and measured twice weekly; conditions: in vivo, 504 h
[5] = Oral bioavailability in Sprague-Dawley rat at 10 mg/kg measured up to 24 hrs by LC/MS/MS analysis; type: ADME, organism-based; conditions: in vivo
BaF3 = assay: Antitumor activity against mouse BaF3 cells transfected with LMNA-NTRK1-G595R mutant xenografted in mouse assessed as tumor growth inhibition at 100 mg/kg, po administered once daily for 21 days and measured twice weekly; conditions: time 21.0 day
[6] = test system: Mast/stem cell growth factor receptor Kit (Homo sapiens), P10721 [V654A]; assay: Inhibition of recombinant human C-Kit V654A mutant (544 to end residues) assessed as residual activity at 0.5 uM poly(Glu, Tyr) 4:1 as substrate incubated 40 mins in presence of [gamma-33ATP] by scintillation counting based radiometry assay relative to control
[7] = C0 in male Sprague-Dawley rat at 2 mg/kg, iv measured up to 24 hrs by LC/MS/MS analysis; type: ADME, organism-based; conditions: in vivo
[8] = molecular target: Mast/stem cell growth factor receptor Kit (Homo sapiens) (UniProt P10721); assay: Inhibition of recombinant human c-Kit (544 to end residues) assessed as residual activity at 0.5 uM using poly(Glu, Tyr) 4:1 as substrate measured after 40 mins in presence of [gamma33P]ATP by scintillation counting method
[9] = molecular target: Fibroblast growth factor receptor 1 (Homo sapiens) (UniProt P11362); assay: Inhibition of recombinant human FGFR1 (456 to 765 residues) assessed as residual activity at 0.5 uM using KKKSPGEYVNIEF as substrate at 40 mins in presence of [gamma-33ATP] by scintillation counting based radiometry assay relative to control
[10] = test system: Hepatocyte growth factor receptor (Homo sapiens), P08581 [M1268T]; assay: Inhibition of recombinant human Met M1268T mutant (974 to end residues) assessed as residual activity at 0.5 uM using KKKGQEEEYVFIE as substrate incubated for 40 mins in presence of [gamma-33P]-ATP by scintillation counting method relative to control
[11] = molecular target: BDNF/NT-3 growth factors receptor (Homo sapiens) (UniProt Q16620); assay: Inhibition of human TrkB (455 to end residues) assessed as residual activity at 0.5 uM using poly(Glu, Tyr) 4:1 as substrate measured after 40 mins in presence of [gamma33P]ATP by scintillation counting method relative to control
[12] = AUC (0 to t) in male Sprague-Dawley rat at 2 mg/kg, iv measured up to 24 hrs by LC-MS/MS analysis; type: ADME, organism-based; set-up: route intravenous, dose 2 mg/kg, time <=24; conditions: in vivo
[13] = test system: Proto-oncogene tyrosine-protein kinase receptor Ret (Homo sapiens), P07949 [V804M]; assay: Inhibition of recombinant human Ret V804M mutant (658 to end residues) assessed as residual activity at 0.5 uM using […] as substrate incubated for 40 mins in presence of [gamma33P]ATP by scintillation counting based radiometry assay relative to control
[14] = molecular target: Serine/threonine-protein kinase A-Raf (Homo sapiens) (UniProt P10398); assay: Inhibition of recombinant human A-Raf (273 to end residues) assessed as residual activity at 0.5 uM using myelin as substrate incubated for 40 mins in presence of [gamma-33P]-ATP by scintillation counting method relative to control
[15] = AUC (0 to t) in female Sprague-Dawley rat at 2 mg/kg, iv measured up to 24 hrs by LC-MS/MS analysis; type: ADME, organism-based; set-up: route intravenous, dose 2 mg/kg, time <=24; conditions: in vivo
[16] = test system: Epidermal growth factor receptor (Homo sapiens), P00533 [T790M]; assay: Inhibition of recombinant human EGFR T790M mutant (696 to end residues) assessed as residual activity at 0.5 uM using poly(Glu, Tyr) 4:1 as substrate at 40 mins in presence of [gamma-33ATP] by scintillation counting based radiometry assay relative to control
[17] = test system: Epidermal growth factor receptor (Homo sapiens), P00533 [L858R]; assay: Inhibition of recombinant human EGFR L858R mutant (696 to end residues) assessed as residual activity at 0.5 uM using poly(Glu, Tyr) 4:1 as substrate at 40 mins in presence of [gamma-33ATP] by scintillation counting based radiometry assay relative to control
[18] = molecular target: Tyrosine-protein kinase JAK2 (Homo sapiens) (UniProt O60674); assay: Inhibition of human JAK2 (808 to end residues) assessed as residual activity at 0.5 uM using KTFCGTPEYLAPEVRREPRILSEEEQEMFRDFDYIADWC as substrate after 40 mins by [gamma-33ATP] radiometric assay relative to control
[19] = test system: Mast/stem cell growth factor receptor Kit (Homo sapiens), P10721 [D816V]; assay: Inhibition of recombinant human C-Kit D816V mutant (544 to end residues) assessed as residual activity at 0.5 uM poly(Glu, Tyr) 4:1 as substrate incubated 40 mins in presence of [gamma-33ATP] by scintillation counting based radiometry assay relative to control
[20] = test system: Proto-oncogene tyrosine-protein kinase receptor Ret (Homo sapiens), P07949 [V804L]; assay: Inhibition of recombinant human Ret V804L mutant (658 to end residues) assessed as residual activity at 0.5 uM using KKKSPGEYVNIEFG as substrate incubated for 40 mins in presence of [gamma33P]ATP by scintillation counting based radiometry assay relative to control
[21] = Tmax in male Sprague-Dawley rat at 10 mg/kg, po measured up to 24 hrs by LC-MS analysis; type: ADME, organism-based; conditions: in vivo
[22] = molecular target: High affinity nerve growth factor receptor (Homo sapiens, UniProt P04629); assay: Inhibition of human TrkA (440 to end residues) assessed as residual activity at 0.5 uM using KKKSPGEYVNIEFG as substrate measured after 40 mins in presence of [gamma33P]ATP by scintillation counting method relative to control
Chain of High affinity nerve growth factor receptor (P04629 33-796 limits assumed): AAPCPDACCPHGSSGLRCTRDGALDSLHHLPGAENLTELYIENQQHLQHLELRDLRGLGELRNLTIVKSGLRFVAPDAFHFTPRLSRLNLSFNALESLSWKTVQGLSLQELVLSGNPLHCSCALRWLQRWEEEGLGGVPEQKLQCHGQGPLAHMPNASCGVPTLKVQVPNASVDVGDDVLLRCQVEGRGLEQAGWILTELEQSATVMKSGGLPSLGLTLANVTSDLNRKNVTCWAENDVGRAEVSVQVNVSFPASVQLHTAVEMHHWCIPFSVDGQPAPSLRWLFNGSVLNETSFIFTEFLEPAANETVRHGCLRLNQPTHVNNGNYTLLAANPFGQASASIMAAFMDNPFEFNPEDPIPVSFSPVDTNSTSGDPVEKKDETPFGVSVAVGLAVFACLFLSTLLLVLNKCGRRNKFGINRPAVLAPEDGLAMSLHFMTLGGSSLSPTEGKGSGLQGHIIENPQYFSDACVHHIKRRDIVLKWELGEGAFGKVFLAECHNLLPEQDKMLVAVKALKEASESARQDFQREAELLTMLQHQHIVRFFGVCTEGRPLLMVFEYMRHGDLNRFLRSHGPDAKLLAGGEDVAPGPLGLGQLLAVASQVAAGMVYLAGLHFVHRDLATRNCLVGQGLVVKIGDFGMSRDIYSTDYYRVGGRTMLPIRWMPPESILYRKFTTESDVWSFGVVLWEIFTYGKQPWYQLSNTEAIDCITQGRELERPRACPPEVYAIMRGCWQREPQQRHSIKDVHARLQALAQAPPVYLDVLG

Chain of BDNF/NT-3 growth factors receptor (Homo sapiens) (Q16620 32-822 limits assumed): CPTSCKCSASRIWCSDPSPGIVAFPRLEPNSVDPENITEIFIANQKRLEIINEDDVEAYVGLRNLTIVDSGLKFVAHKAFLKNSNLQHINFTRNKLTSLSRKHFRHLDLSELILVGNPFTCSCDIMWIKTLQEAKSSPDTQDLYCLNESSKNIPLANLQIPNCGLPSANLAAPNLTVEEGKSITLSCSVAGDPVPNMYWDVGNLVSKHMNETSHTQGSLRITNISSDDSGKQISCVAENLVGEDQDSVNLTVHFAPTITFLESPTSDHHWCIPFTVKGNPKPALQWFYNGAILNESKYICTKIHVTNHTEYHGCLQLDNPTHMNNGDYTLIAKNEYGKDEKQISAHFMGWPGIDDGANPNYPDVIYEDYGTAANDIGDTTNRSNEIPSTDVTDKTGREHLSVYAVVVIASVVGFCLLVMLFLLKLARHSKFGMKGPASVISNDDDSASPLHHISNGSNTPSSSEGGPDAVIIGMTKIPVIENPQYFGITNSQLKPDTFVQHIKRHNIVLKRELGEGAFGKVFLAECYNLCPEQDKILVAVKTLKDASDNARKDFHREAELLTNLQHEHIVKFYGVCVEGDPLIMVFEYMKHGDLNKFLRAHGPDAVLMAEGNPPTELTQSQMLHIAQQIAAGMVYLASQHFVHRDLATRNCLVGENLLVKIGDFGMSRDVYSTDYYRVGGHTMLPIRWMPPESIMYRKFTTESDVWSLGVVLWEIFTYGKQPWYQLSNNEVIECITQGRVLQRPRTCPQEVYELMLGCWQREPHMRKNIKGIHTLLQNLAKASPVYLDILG
Chain of Mast/stem cell growth factor receptor Kit (Homo sapiens) (P10721 whole entry, the tested form may be a part): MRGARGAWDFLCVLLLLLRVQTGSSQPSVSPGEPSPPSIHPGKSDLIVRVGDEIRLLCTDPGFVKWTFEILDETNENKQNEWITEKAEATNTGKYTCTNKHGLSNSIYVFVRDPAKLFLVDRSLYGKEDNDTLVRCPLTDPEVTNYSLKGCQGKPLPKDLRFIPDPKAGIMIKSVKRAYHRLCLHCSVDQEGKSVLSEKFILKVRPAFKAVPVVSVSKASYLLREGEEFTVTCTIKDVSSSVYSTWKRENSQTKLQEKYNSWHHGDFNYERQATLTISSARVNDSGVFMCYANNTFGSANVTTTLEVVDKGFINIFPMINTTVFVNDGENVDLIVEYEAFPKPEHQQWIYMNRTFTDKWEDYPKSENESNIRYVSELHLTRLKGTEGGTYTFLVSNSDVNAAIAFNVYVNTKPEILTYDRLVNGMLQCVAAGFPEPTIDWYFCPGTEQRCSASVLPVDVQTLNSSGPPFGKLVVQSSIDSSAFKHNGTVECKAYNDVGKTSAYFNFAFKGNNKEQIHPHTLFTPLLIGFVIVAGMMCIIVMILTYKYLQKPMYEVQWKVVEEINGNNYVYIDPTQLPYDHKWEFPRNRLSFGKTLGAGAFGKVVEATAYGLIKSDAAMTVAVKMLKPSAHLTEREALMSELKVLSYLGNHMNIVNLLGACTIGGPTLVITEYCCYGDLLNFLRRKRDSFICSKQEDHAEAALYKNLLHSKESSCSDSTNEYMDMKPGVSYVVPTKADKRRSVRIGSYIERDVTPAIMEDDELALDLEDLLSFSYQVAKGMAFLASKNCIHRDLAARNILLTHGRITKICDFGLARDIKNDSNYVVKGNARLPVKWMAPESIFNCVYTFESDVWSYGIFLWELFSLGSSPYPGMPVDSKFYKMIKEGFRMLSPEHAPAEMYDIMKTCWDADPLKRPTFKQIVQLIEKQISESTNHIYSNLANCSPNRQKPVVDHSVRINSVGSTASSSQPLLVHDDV
Chain of Proto-oncogene tyrosine-protein kinase receptor Ret (Homo sapiens), P07949 [V804L] (P07949 whole entry V804L): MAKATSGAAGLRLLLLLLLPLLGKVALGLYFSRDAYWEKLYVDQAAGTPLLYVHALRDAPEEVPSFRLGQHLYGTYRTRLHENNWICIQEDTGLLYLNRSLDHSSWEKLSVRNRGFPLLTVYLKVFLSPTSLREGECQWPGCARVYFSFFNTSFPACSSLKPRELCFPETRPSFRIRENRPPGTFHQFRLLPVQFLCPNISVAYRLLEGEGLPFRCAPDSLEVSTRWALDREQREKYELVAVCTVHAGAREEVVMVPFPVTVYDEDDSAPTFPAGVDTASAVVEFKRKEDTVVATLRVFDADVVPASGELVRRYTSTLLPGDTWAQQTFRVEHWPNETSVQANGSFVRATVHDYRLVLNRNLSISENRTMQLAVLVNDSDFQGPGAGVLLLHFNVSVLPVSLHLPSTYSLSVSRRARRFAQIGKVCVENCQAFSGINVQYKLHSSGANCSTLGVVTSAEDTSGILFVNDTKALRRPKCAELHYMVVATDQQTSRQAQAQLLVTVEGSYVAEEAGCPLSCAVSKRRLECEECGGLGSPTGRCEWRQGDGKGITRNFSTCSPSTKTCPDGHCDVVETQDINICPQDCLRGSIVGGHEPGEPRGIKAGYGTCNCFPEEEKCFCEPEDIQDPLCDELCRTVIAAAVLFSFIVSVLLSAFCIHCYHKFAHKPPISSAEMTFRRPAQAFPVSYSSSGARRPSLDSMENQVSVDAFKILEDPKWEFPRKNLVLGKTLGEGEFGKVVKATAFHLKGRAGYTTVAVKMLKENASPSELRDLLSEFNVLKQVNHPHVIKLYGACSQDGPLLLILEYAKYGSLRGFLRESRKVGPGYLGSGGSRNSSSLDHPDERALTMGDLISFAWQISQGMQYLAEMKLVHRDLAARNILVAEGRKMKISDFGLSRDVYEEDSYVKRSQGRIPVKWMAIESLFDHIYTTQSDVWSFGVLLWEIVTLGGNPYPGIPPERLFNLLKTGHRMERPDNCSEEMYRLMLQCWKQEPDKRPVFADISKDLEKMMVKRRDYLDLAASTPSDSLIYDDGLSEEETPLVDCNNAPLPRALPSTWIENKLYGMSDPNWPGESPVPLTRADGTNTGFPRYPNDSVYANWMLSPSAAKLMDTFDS
Chain of Fibroblast growth factor receptor 1 (Homo sapiens) (P11362 22-822 limits assumed): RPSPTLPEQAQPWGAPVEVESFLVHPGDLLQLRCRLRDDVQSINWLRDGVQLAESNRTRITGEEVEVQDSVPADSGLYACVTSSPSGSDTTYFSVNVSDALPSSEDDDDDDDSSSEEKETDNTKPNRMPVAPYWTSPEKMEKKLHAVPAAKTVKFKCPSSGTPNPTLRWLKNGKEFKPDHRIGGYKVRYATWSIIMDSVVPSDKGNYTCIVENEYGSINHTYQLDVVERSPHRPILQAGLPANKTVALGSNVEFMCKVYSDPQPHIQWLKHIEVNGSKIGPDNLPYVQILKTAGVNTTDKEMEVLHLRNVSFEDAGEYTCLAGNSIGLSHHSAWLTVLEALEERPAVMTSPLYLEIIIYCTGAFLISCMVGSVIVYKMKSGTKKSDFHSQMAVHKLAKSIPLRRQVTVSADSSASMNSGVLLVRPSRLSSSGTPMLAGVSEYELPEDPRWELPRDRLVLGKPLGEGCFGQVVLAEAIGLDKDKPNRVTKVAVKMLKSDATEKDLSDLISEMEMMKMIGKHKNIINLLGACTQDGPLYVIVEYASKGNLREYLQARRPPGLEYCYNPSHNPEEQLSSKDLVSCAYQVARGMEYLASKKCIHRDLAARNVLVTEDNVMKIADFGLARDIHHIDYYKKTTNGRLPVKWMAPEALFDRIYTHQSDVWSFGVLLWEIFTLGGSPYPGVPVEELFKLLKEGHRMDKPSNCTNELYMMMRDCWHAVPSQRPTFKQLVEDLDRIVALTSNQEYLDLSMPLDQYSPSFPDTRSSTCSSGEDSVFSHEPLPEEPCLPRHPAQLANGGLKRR
Chain of Serine/threonine-protein kinase A-Raf (Homo sapiens) (P10398 whole entry): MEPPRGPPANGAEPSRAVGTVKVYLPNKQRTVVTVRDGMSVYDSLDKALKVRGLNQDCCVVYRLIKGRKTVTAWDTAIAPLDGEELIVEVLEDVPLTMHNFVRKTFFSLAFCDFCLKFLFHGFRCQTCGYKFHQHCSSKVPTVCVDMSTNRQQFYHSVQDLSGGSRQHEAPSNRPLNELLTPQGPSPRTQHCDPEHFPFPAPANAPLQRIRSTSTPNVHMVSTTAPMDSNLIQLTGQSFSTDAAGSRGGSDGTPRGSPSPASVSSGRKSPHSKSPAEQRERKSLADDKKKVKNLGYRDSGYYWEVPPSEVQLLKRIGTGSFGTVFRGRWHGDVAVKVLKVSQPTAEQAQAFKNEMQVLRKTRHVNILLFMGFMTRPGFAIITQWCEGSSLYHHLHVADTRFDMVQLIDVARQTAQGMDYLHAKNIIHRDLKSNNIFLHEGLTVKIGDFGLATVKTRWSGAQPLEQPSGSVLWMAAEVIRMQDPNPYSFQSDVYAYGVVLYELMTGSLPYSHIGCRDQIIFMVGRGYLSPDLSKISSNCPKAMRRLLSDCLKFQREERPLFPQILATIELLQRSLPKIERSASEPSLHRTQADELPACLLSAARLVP
Chain of Proto-oncogene tyrosine-protein kinase receptor Ret (Homo sapiens), P07949 [V804M] (P07949 whole entry V804M): as the sequence (P07949 whole entry V804L) above, with L804M counted along it

With `C[C@@H]1CCc2ncc(F)cc2[C@H]2CCCN2c2ccn3ncc(c3n2)C(=O)N1` [SELITRECTINIB] the Activity [1] was “Toxic”, the Activity [2] was “Toxic” and the Activity [3] was “Toxic”. For the same compound, the Activity [4] was “Toxic”, the bioavailability [5] was 74% and the Activity (BaF3) was “Active”.

Compound `O=C1NC2(CC2)COc2ncc(F)cc2[C@H]2COCCN2c2ccn3ncc1c3n2` has an Activity [6] of 105%, a C0 at 24 h [7] of 4.12 µM and an Activity [8] of 100%. It also gave an Activity [9] of 92%, an Activity [10] of 86% and an Activity [11] of -1%. For the same compound, the AUC(0-t) at 24 h [12] was 4.19 µM·h, the Activity [13] was 54% and the Activity [14] was 103%. The AUC(0-t) at 24 h [15] was 10.3 µM·h, the Activity [16] was 105% and the Activity [17] was 91%. The Activity [18] was 44%, the Activity [19] was 101% and the Activity [20] was 59%. The Tmax [21] was 40 min and the Activity [22] was 2%.
